Measurements published in ChEMBL document CHEMBL1949595, “Fluorinated ΔF508-CFTR correctors and potentiators for PET imaging” (Bioorg Med Chem Lett, 2012).

Legend:
[1] = biological target: Cystic fibrosis transmembrane conductance regulator (Homo sapiens, UniProt P13569, F508DEL); assay: Corrector activity at human CFTR delta F508 mutant expressed in rat FRT cells coexpressing fluorescent protein YFP-H148Q/1152L by fluorescence assay; assay type: cell-based
[2] = Potentiation activity at human CFTR delta F508 mutant-mediated iodine flux expressed in rat FRT cells coexpressing fluorescent protein YFP-H148Q/1152L by fluorescence assay; assay type: cell-based

Chain of Cystic fibrosis transmembrane conductance regulator (P13569 as listed by the source): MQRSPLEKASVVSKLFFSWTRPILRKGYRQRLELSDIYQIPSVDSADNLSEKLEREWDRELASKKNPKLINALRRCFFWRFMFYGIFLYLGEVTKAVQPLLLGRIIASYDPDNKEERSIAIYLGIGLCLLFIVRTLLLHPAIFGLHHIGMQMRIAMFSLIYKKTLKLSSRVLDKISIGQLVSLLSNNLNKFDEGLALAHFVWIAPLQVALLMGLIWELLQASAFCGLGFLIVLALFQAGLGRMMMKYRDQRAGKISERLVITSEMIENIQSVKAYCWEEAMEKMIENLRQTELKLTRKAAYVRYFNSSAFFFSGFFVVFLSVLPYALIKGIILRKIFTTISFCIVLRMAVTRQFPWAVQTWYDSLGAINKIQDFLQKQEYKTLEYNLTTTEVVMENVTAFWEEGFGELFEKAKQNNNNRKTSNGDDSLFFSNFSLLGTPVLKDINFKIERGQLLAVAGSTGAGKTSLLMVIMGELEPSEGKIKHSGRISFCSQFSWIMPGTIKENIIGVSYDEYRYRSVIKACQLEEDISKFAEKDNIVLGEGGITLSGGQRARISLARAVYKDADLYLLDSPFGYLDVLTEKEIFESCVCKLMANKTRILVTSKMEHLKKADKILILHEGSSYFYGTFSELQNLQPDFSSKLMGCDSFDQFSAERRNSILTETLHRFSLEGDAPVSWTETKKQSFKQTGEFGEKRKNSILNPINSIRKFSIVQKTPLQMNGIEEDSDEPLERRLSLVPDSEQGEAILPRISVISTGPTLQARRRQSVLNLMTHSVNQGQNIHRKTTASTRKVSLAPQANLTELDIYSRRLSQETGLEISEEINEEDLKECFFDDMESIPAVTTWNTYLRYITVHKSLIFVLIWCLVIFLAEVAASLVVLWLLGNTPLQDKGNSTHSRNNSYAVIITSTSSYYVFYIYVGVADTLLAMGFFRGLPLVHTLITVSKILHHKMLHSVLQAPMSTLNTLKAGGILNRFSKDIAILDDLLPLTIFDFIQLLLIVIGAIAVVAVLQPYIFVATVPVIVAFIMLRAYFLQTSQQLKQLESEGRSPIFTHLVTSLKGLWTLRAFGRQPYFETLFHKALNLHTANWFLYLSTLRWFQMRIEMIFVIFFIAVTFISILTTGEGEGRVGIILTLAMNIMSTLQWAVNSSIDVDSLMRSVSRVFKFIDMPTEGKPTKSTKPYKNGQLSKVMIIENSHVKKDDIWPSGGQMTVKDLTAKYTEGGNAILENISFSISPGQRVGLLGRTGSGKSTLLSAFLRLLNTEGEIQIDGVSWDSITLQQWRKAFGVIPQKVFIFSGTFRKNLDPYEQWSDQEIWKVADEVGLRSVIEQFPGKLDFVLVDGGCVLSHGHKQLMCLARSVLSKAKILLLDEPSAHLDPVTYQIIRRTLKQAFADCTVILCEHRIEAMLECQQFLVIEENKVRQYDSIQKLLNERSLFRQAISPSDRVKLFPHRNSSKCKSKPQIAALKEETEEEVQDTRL

Cc1nc(NC(=O)c2ccc([19F])cc2)sc1-c1csc(Nc2cc(N(C)C)ccc2Cl)n1
EC50 [1]: 1400 nM

COc1ccc(Cl)cc1Nc1nc(-c2sc(NC(=O)c3ccc([19F])cc3)nc2C)cs1
EC50 [1]: 1400 nM

CN(C(=O)Cc1c[nH]c2ccccc12)[C@H](C(=O)Nc1ccc([19F])cc1)c1ccccc1
EC50 [2]: 90 nM

CN(C(=O)Cc1c[nH]c2ccccc12)[C@H](C(=O)Nc1ccc(-n2cc(CCC[19F])nn2)cc1)c1ccccc1
EC50 [2]: 1100 nM

COc1ccc(Cl)cc1Nc1nc(-c2sc(NC(=O)c3ccccc3)nc2C)cs1
EC50 [1]: 2300 nM
